# Measured values published in US12528774B2, “Thiosemicarbazone compounds and uses thereof” (The Regents of the University of California, priority 2019, dated 2026).
# Values joined by “and” are separate entries in the source; they are usually repeats but may differ in a detail not shown here. Identical values can stand only once. Like-named read-outs stand apart in the source and are kept apart here.
# How the values were obtained:
# MIAPACA2 cells = experiment: Proliferation assay (CellTiter-Glo, 72 h) in MIAPACA2 cells; type: cell-based, human; conditions: for IC90: Homo sapiens, MIA PaCa-2, 72 h, MIAPACA2, 72 h
# Description: IC90 values against MIAPACA2 cells was first determined in normal cell culture conditions (DMEM media and 10% FBS). Compounds were separated into three series (4′ primary amines, 4′ secondary amines, 4′ tertiary amines) to reflect the relative degrees of 4′ amine methylation. […] (Refs 41, 42).
# HCT compounds are known to be copper chelators. (Ref. 32). To test whether the compounds described herein were similarly potentiated, the IC90 (+Cu IC90) values were determined against MIAPACA2 cells in media supplemented with physiologically relevant levels of copper (DMEM media+10% FBS+20 μM CuCl2). MIAPACA2 cells were treated with the indicated HCT±20 μM Cu(II) for 72 hours, then cell viability was measured with CellTiter-Glo to determine IC90 values.
# (§1) Proliferation assay: Cells were plated in 384-well plates (500 cells/well for adherent cell lines in 30 μl volume). Drugs were serially diluted to the desired concentrations and an equivalent volume of DMSO was added to vehicle control. Following 72 h incubation, ATP content was measured using CellTiter-Glo reagent according to manufacturer's instructions (Promega, CellTiter-Glo Luminescent Cell Viability Assay), and analyzed by SpectraMax luminometer (Molecular Devices). IC50 and IC90 values, concentrations required to inhibit proliferation by 50% and 90% respectively compared to DMSO treated cells, were calculated using Prism 6.0 h (Graphpad Software).
# as §1, with “assay.” for “assay:”, “Software). The 430-member protein kinase inhibitor library used for the chemical genomics screen was purchased from Selleckchem, Catalog No. L1200.” for “Software).”
# [1] = HCT-13 stock solution (solubilization); type: physicochemical; conditions: aqueous with cosolvent or surfactant or cyclodextrin; aqueous 40% captisol with 1% DMSO, heating 50° C., sonication 15 minutes; read-out: concentration solubilized
# Description: HCT-13 stock solution. HCT-13 was solubilized up to a concentration of 20 mg/mL in an aqueous solution of 40% captisol with 1% DMSO with the aid of heating at 50° C. and sonication for 15 minutes.
# [2] = tested on: panel of PDAC, SCLC, and PC cancer models; experiment: Proliferation assay (CellTiter-Glo) in panel of PDAC, SCLC and PC cancer models; type: cell-based, human and mouse; conditions: media with 20 μM CuCl2, 72 h
# Source text: FIG. 1A: IC50 values in a panel of human and mouse prostate cancer (PC)(cell lines CF-2, LNCaP, 22Rv1, RM-1, MyC CaP); small cell lung carcinoma (SCLC)(cell lines NCI-H1963, NCI-H146, NCI-H526); pancreatic ductal adenocarcinoma (PDAC)(CFPAC1, SW1990, HS766T, PANC0203, PANC0813, ASPC1, HPAFII, PATU8902, PANC0327, PANC1, YAPC, L36PL, XWR200, HUPT4, A13A, SUIT2, DAN-G, BxPC3, HPAC, PSN1, SU8686, KP4662, MIAPACA2, PATU8988T); and leukemia (cell lines KG-1, TF-1, Jurkat, MOLT-4, p185-R, MV4-11) models treated with HCT13+Cu(II) (20 μM) for 72 h measured by CellTiterGlo. […] (mean±SD, n=2, one-way ANOVA corrected for multiple comparisons by Bonferroni adjustment, * P<0.05; **P<0.01; ***P<0.001).
# Serum copper levels are elevated (>20 μM) in individuals with solid tumor types such as pancreatic ductal adenocarcinoma (PDAC), small cell lung carcinoma (SCLC), and prostate cancer (PC). (Refs. 43-48). These cancers rely upon elevated copper levels to sustain growth, making this transition metal a viable target for therapeutic modulation. (Ref 34). […]
# Proliferation assay: Cells were plated in 384-well plates (500 cells/well for adherent cell lines in 30 μl volume). […] Following 72 h incubation, ATP content was measured using CellTiter-Glo reagent according to manufacturer's instructions (Promega, CellTiter-Glo Luminescent Cell Viability Assay), and analyzed by SpectraMax luminometer (Molecular Devices). […]
smiles,measurement,setting,value
"CN(C)C(=S)N/N=C/c1nccc2cc(F)ccc12 (mixture of isomers) [HCT13, (E)-2-((6-Fluoroisoquinolin-1-yl)methylene)-N,N-dimethylhydrazine-1-carbothioamide and (Z)-2-((6-Fluoroisoquinolin-1-yl)methylene)-N,N-dimethylhydrazine-1-carbothioamide]",increase in potency under copper supplementation versus non-copper-supplemented IC90,MIAPACA2 cells; 20 μM CuCl2,greater than 5 fold
same,antiproliferative potency with Cu(II) supplementation,"MIAPACA2 cells; 72 h, Cu(II) 20 μM",highest
same,IC90,"MIAPACA2 cells; DMEM + 10% FBS + 20 μM CuCl2, read-out: +Cu(II) IC90",21.6 nM
same,IC90,"MIAPACA2 cells; DMEM + 10% FBS, no copper supplementation, read-out: IC90",110 nM
same,potency relative to non-methylated analog HCT3,MIAPACA2 cells; IC90 without copper,~50 fold
same,potency relative to non-fluorinated analog,"MIAPACA2 cells; IC90 without copper, analog of same 4′ amine series (HCT1, HCT6 or HCT11)",~250 fold and ~270 fold
same,solubility at 15 min,[1],≤ 20 mg/mL
same,+Cu IC90 range across panel,[2],nanomolar
same,IC90,[2]; read-out: +Cu IC90 range across panel,1 to 200 nM
